In ChEMBL document CHEMBL5465560, “Selectivity Literature for EUbOPEN Chemogenomic Library” (2024):
One block for each molecule: values may come before it.

Key:
[1] = biological target: Myosin light chain kinase, smooth muscle (Homo sapiens, UniProt Q15746); test: Selectivity interaction (Kinase panel (literature)) EUB0001199aCl MYLK; settings: at 1 µM
[2] = biological target: Casein kinase II subunit alpha' (Homo sapiens) (UniProt P19784); test: Selectivity interaction (KinomeScan (DiscoverX)) EUB0001619a CSNK2A2; settings: at 1 µM
[3] = biological target: Serine/threonine-protein kinase Chk2 (Homo sapiens) (UniProt O96017); test: Selectivity interaction (Kinase panel (DSF assay)) EUB0001558a CHEK2
[4] = biological target: T1, Dual specificity protein kinase TTK (Homo sapiens) (UniProt P33981); test: Selectivity interaction (Kinase panel (DSF assay)) EUB0001558a TTK
T1 sequence (whole entry): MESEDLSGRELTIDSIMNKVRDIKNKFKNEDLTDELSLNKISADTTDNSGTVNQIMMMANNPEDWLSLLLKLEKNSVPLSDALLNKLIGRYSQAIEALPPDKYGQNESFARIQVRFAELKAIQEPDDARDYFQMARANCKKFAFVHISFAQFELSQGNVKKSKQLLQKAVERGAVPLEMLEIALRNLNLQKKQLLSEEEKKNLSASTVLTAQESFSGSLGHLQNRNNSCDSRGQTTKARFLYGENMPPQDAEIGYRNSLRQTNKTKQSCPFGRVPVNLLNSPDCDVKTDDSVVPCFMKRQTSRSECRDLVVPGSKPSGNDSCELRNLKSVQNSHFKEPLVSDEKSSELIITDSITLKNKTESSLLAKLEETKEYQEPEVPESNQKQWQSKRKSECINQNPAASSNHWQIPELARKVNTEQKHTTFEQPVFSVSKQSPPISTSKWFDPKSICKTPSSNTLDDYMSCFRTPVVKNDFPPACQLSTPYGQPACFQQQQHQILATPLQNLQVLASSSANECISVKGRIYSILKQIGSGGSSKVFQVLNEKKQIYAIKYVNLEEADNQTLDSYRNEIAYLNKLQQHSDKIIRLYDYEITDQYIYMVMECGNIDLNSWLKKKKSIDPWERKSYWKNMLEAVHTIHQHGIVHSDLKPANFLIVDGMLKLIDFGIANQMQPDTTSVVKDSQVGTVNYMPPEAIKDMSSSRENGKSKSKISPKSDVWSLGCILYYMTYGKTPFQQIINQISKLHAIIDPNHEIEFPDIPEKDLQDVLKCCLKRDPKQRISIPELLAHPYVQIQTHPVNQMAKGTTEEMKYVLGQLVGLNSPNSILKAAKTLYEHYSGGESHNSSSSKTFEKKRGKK

[5] = biological target: Tyrosine-protein kinase JAK1 (Homo sapiens, UniProt P23458); test: Selectivity interaction (ActivX KiNativ screen (kinase selectivity in THP-1 cell lysates)) EUB0000639a JAK1; assay type: subcellular; settings: lysate, at 0.2 µM
[6] = biological target: Hepatocyte growth factor receptor (Homo sapiens, UniProt P08581); test: Selectivity interaction (Kinase panel (Invitrogen)) EUB0000639a MET; settings: at 200 nM
[7] = biological target: T2, Serine/threonine-protein kinase TAO3 (Homo sapiens) (UniProt Q9H2K8); test: Selectivity interaction (KinomeScan (DiscoverX)) EUB0000229b TAOK3; settings: at 10 µM
T2 sequence (whole entry): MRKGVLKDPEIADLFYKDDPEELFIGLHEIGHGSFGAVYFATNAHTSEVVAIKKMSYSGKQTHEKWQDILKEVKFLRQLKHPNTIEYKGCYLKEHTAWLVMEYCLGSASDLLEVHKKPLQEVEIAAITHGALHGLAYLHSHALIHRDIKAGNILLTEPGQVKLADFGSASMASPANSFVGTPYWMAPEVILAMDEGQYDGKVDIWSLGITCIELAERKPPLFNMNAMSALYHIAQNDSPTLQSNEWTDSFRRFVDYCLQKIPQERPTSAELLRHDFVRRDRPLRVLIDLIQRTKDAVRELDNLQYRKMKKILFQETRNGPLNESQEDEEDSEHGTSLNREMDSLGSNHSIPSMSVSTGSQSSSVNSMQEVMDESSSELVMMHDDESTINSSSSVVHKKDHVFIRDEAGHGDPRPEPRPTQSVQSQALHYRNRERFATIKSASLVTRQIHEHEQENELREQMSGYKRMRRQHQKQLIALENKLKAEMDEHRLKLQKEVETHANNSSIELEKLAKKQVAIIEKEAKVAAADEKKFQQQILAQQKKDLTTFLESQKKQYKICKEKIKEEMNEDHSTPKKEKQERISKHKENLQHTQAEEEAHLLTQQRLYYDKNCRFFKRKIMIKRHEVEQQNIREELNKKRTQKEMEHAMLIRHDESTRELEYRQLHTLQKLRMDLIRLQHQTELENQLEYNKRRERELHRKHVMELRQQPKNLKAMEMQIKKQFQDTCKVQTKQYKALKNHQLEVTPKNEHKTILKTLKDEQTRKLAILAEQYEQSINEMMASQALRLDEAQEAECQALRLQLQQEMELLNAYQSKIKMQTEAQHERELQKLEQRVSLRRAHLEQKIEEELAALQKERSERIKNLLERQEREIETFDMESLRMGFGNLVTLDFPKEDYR

[8] = biological target: Bromodomain-containing protein 8 (Homo sapiens) (UniProt Q9H0E9); test: Selectivity interaction (Human bromodomain panel (DSF assay)) EUB0000233b BRD8
Bromodomain-containing protein 8 (Homo sapiens), sequence (Q9H0E9 whole entry): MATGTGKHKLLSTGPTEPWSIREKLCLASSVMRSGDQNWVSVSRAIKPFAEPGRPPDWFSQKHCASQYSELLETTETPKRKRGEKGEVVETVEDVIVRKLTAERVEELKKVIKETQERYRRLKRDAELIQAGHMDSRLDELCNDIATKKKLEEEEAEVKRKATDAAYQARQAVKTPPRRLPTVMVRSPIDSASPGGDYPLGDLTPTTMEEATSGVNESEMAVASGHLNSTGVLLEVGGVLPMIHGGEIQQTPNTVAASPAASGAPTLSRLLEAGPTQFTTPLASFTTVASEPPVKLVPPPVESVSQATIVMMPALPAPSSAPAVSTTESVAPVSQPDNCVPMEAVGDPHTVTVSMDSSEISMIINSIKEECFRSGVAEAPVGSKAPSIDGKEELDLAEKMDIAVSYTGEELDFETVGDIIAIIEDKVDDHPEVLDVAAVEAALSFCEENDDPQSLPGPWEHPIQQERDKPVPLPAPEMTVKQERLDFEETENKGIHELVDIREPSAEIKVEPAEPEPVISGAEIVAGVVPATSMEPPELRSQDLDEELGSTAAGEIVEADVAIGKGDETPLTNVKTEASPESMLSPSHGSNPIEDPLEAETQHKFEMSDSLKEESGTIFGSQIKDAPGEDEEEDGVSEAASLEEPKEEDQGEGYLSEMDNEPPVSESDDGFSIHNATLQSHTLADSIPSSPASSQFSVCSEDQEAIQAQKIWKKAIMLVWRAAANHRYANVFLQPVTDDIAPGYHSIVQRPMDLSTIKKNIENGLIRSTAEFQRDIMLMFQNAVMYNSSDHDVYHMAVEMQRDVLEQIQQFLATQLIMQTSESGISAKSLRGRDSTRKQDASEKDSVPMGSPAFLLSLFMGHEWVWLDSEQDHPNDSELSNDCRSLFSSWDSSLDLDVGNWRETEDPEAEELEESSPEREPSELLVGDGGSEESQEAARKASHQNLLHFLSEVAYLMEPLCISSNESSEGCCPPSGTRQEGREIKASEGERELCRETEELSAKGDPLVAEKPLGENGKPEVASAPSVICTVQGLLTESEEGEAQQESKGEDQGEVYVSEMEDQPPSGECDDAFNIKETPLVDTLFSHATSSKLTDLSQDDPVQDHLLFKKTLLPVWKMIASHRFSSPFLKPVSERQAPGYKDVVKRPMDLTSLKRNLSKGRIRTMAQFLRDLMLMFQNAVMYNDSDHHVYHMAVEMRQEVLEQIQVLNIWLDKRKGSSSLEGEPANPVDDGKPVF

Myosin light chain kinase, smooth muscle, sequence (Q15746 whole entry): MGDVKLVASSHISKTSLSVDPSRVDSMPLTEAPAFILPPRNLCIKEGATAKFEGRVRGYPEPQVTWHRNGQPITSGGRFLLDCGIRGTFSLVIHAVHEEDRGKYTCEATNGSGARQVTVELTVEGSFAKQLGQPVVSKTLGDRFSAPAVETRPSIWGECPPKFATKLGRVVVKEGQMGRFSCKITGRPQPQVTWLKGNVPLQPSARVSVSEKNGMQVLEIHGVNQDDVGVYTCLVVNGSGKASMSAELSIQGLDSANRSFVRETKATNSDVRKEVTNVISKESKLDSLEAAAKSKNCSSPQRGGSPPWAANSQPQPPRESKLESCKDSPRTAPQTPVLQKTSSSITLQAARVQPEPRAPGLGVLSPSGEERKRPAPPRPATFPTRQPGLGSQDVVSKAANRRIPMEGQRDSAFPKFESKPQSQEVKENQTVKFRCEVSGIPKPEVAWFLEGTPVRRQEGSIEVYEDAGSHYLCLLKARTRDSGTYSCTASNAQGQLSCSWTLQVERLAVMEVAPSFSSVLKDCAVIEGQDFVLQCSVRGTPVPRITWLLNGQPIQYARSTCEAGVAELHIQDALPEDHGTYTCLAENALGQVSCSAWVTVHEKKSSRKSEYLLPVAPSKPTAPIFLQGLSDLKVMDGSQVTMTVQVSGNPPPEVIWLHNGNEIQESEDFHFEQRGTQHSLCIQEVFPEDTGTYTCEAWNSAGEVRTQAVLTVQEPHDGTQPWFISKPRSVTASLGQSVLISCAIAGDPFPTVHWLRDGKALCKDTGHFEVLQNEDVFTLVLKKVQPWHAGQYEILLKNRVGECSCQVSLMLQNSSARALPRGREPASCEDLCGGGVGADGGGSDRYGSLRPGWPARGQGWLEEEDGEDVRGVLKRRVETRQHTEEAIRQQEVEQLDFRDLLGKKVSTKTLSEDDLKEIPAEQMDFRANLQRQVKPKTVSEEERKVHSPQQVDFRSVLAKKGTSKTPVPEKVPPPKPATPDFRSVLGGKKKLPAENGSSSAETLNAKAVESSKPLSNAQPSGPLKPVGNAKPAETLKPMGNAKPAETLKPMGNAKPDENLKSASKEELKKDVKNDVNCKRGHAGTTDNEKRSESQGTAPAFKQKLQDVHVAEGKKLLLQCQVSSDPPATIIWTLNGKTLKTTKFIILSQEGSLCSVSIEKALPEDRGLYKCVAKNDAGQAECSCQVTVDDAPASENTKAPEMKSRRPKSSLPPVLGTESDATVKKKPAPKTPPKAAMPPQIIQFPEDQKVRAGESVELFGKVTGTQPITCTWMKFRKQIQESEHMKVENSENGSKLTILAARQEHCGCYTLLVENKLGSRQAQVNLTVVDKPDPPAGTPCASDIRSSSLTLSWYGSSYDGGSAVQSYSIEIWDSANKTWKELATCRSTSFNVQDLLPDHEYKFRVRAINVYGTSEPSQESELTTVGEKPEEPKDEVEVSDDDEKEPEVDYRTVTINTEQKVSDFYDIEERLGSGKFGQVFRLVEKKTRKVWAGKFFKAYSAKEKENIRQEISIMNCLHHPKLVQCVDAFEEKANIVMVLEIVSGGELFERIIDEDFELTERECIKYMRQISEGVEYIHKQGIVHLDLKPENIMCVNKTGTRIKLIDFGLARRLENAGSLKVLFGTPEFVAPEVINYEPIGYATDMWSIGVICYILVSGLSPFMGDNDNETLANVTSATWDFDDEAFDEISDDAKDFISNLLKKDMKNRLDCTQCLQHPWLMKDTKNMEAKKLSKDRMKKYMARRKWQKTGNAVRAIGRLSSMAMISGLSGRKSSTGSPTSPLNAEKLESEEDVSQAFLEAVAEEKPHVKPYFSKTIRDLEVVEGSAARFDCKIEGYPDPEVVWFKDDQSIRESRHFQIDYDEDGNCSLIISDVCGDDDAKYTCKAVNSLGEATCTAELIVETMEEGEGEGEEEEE
Hepatocyte growth factor receptor, sequence (P08581 whole entry): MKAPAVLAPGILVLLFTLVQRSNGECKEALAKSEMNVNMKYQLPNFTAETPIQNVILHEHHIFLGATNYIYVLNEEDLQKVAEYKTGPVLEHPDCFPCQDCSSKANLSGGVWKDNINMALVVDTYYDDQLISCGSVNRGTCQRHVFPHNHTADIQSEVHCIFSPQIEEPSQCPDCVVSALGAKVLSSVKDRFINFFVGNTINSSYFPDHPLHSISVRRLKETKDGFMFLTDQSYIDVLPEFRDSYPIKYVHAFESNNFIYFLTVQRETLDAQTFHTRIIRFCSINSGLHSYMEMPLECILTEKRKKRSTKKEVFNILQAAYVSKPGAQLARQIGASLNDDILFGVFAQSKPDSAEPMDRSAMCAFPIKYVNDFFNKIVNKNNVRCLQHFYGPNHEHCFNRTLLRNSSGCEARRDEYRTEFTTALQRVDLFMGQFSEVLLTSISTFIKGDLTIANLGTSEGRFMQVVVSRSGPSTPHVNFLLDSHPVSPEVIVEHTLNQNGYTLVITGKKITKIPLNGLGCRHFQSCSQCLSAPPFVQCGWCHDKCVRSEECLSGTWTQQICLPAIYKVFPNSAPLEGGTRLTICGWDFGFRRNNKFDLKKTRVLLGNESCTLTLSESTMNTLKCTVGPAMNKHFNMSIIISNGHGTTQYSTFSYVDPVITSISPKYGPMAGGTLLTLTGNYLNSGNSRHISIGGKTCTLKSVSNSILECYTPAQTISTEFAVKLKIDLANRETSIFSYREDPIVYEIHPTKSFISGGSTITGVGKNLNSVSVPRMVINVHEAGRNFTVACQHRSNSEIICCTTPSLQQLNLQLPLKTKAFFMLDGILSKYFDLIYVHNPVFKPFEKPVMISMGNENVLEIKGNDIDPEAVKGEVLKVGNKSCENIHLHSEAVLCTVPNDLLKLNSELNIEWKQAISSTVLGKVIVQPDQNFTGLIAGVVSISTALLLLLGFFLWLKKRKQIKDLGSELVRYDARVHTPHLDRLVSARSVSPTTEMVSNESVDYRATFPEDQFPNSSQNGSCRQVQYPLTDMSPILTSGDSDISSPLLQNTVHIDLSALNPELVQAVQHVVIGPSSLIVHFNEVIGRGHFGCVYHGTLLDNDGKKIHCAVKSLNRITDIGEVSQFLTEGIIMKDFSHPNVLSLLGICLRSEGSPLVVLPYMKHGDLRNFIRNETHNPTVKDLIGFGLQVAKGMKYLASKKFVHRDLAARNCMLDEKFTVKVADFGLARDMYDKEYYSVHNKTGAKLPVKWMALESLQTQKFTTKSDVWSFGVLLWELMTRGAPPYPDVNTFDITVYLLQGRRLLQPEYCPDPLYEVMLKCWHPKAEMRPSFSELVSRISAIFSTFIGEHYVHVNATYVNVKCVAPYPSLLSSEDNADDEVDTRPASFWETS
Casein kinase II subunit alpha' (Homo sapiens), sequence (P19784 whole entry, looked up): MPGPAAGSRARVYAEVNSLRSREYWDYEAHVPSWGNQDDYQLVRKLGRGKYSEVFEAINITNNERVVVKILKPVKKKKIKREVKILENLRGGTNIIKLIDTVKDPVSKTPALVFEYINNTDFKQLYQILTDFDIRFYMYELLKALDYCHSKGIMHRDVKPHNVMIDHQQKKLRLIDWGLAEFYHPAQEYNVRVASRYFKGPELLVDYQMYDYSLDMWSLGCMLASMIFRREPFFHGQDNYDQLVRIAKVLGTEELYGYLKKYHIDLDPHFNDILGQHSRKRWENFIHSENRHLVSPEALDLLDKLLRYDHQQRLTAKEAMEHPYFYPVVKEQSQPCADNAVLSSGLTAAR

% of inhibition [1]: 4%
SMILES: CN1Cc2nccc(-c3cn(C)nc3-c3ccc(F)cc3)c2C1=O

SMILES: N#Cc1cccc(-c2c[nH]c3ncnc(N4CCOCC4)c23)c1
% of control [2]: 45%

SMILES: CC(C)(O)[C@H](F)CN1Cc2cc(NC(=O)c3cnn4cccnc34)c(N3CCOCC3)cc2C1=O
dTM [3]: 1.5 K
dTM [4]: 0.3 K

% of inhibition [5]: -7.3%
% of inhibition [6]: 2.16%
SMILES: CC[C@@H]1[C@H](F)C(=O)N[C@@H]1COc1nccc2cc(C(N)=O)c(OC)cc12 [ZIMLOVISERTIB]

SMILES: COc1cc(N(C)c2ccnc3ccc(C(F)(F)F)cc23)cc(OC)c1OC
% binding [7]: 80%

dTM [8]: < 2 K
SMILES: CN(C)CCCOc1ccc(-c2cc(NCCCn3cccn3)nc(S(C)(=O)=O)n2)cc1
